Laboratory results from patent US8455240B2, “Use of thermophilic sulphate-reducing archaea for the implementation of a process for the degradation of hydrocarbons” (Institut de Recherche pour le Development (I.R.D.), priority 2005, dated 2013).
Several values for one entry are separate records, joined by “and”; a condition that tells them apart may be missing. Equal entries are not always repeated. Marks after values point to notes of the source that are not given here.

What was measured:
[1] = system: strain L-3; test: Sources of carbon and energy used by the strain L-3; type: cell-based, Archaeoglobus fulgidus CNCM I-3465 (strain L-3); details: for OD 580 nm Final / H2S (480 nm) / OD 580 nm Initial: thiosulphate as electron acceptor; for H2S (480 nm): unit from b126
Description: (§1) Experimentally, 4 ml of Cord-Ruwish reagent comprising 50 mmol/l of HCl and 5 mmol/l of CuSO4 are added to 0.1 ml of sample. Copper sulphate (CuSO4) by reacting with hydrogen sulphide (H2S), forms a copper sulphide precipitate (CuS) after the reaction: CuSO4+H2S→CuS+H2SO4
(§2) According to this method, the CuS is assayed by spectrophotometry at 480 nm. The readings are carried out against a blank constituted by 4 ml of Cord-Ruwish reagent.
The analysis and quantification of the metabolites are carried out by HPLC by measuring the disappearance of the substrate and the appearance of different metabolism products.
The study of the growth of the strain L-3 in the presence of different sources of carbon and energy was carried out with thiosulphate as an electron acceptor. The monitoring was carried out by estimation of the cell biomass (OD 580 nm), by assay of the sulphide production (Cord-Ruwish). The results were confirmed by HPLC analyses, and completed in certain cases by a CO2 assay.

[2] = system: strain L-3; test: Monitoring of thiosulphate during the degradation of fatty acids by L-3; type: cell-based, Archaeoglobus fulgidus CNCM I-3465 (strain L-3); details: E1/E2 replicates; for thiosulphate, time 0: time 0 (Feb. 5, 2005)
Description: (§3) The thiosulphate and sulphate assays are carried out by ion chromatography.
(§4) The analyses are carried out with a chromatograph (Compact IC 761, Metrohm) equipped with: • A […] ion-exchange column (Metrosep A SUPP 1-250 (6.1005.300)), size 4.6*250 mm; • The eluent used is Na2CO3 at a concentration of 3 mmol/l, at a flow rate of 1 to 2.5 ml/min; ((→the flow rate varies during the analysis)) • A sample processor (Metrohm 838); • A conductimeter; • A computer where the results are recorded, integrated and analyzed by software (761 Compact IC, Metrohm). III.3.2. Operating Method
(§5) The operating conditions are such that the temperature is 20° C. and the pressure is 5 MPa. The samples to be analyzed are filtered. The injection volume is 20 μl. The detection is of conductimetric electrochemical type with chemical suppression allowing elution gradients.
(§6) Monitoring of thiosulphate during the degradation of fatty acids by A. fulgidus and by L-3

[3] = system: Archaeoglobus fulgidus DSM 4304; test: Monitoring of thiosulphate during the degradation of fatty acids by A. fulgidus; type: cell-based; details: E1/E2 replicates; for thiosulphate, time 0: time 0 (Jul. 4, 2005), butyrate, valerate 5 mM, others 2 mM
Description: as §3, §4, §5, §6

[4] = system: Archaeoglobus fulgidus; test: Screening for hydrocarbon degradation, A. fulgidus (sulphide production, Cord-Ruwish); type: cell-based; details: for ΔS tf-ti: final minus initial sulphide
Description: as §1, §2
The study of the hydrocarbon degradation abilities is an experiment which requires a particularly long incubation. Thus, it was carried out in Bellco tubes sealed with thick rubber stoppers.
For these experiments, tubes containing 10 ml of culture medium without substrate, are 10% inoculated, then the hydrocarbon is introduced by injection through the stopper.
The hydrocarbons chosen are model molecules belonging to the different classes of hydrocarbons, namely: • hexadecane (CH3(CH2)14CH3, C16), a saturated linear aliphatic hydrocarbon; • hexadecene (CH3(CH2)13CHCH2, C16:1), an unsaturated linear aliphatic hydrocarbon of biogenic origin; • dibenzothiophene (DBT, C12H8S), a sulphur-containing aromatic hydrocarbon.
The aliphatic hydrocarbons (C16; C16:1) are added to the corresponding tubes, at a rate of 0.04 ml/10 ml of culture medium. The aromatic hydrocarbons (DBT) are solubilized in 2,2,4,4,6,8,8-heptamethylnonane (HMN, C16H34) at a rate of 20 mg/ml of HMN, and 0.75 ml of this solution is injected into 10 ml of culture medium.
3 tubes were produced for each test and control. The growth of the strains was monitored indirectly by the production of sulphide.
A subculture was carried out starting from the preceding experiment on naphthalene, DBT solubilized as previously in HMN, and on HMN alone, for the two strains studied.

Row | Molecule | OD 580 nm Final [1] | H2S (480 nm) [1] | OD 580 nm Initial [1] | thiosulphate, time 0 [2] | also measured
1 | O=C[C@H](O)[C@H](O)[C@H](O)CO [Ribose, ribose] | 0.3422 and 0.21 | 0.6 mM and 0.5 mM |  |  | HPLC analyses, initial quantity of the substrate ([1]; no increase in biomass or sulphide, explained by isomerization at high temperature): reduction in the initial quantity of the substrate
2 | O=C(O)CCC(=O)O [Succinate] | 0.0659 and 0.0672 | 0.3 mM | 0.0845 and 0.0791 |  | 
3 | CCCC(=O)O [butyrate] |  |  |  | 15.45 mM | thiosulphate, end of May 2005 [3]: 9.29 mM; thiosulphate, time 0 [3]: 12.51 mM
4 | CCCCCCCCC(=O)O [nonanoate] |  |  |  |  | thiosulphate, end of May 2005 ([3]; listed as C9 fatty acid): 7.65 mM and 10.52 mM
5 | CCCCCCCC(=O)O [octanoate] |  |  |  |  | thiosulphate, end of May 2005 ([2]; end of May 2005, listed as C8 fatty acid): 9.56 and mM and 9.33 mM; thiosulphate, end of May 2005 ([3]; listed as C8 fatty acid): 8.2 mM and 9.27 mM
6 | CCCCCCCCCCCCCCCC(=O)O [palmitate] |  |  |  | 15.52 mM | thiosulphate, end of May 2005 [3]: 9.12 mM; thiosulphate, time 0 [3]: 11.54 mM
7 | CCCCCCCCCCCCCCCCCC(=O)O [stearate] |  |  |  | 14.64* mM | thiosulphate, end of May 2005 ([3]; listed as C18 fatty acid): 10.55 mM and 7.05 mM
8 | Gelatin | 0.0743 and 0.0767 | 0.3 mM and 0.2 mM | 0.0629 and 0.0894 |  | 
9 | Starch |  | 0.8 mM and 0.7 mM | 0.8834 and 0.8614 |  | 
10 | hexadecene [C16:1] |  |  |  |  | sulphide production (OD 480) 0 d ([4]; 0 d, aromatics solubilized in HMN): 0.8 mM and 0.6 mM; sulphide production (OD 480) 45 d ([4]; 45 d): 3.6 mM and 4.3 mM; ΔS tf-ti [4]: approximately 3 mM; ΔS tf-ti ([4]; listed as C16: 1): 2.8 mM and 3.0 mM and 3.5 mM
